Test results taken from patent publication US20050037294A1, “Stabilized p-phenylenediamine-type photographic color developers in free base form” (priority 2000, published 2005).

Assay: Saturation solubility of color developer free base in solvents and solvent/water mixtures (HPLC and NMR)
Settings: for Solubility in the solvents evaluated (in words): all solvents evaluated, room temperature; for CD Free Base Conc. (saturation solubility): ambient temperature, 3% DEHA added
Experimental: Representative solvents were selected from each of the different classes of solvents: alcohols, glycols and glycol ethers. A small quantity of a representative preservative, 3% of N,N-dietheylhydroxylamine (DEHA), was added.

SMILES | Solubility in the solvents evaluated (in words) | CD Free Base Conc. (saturation solubility) (2-Propanol/Water 10:90 (weight:weight)) | CD Free Base Conc. (saturation solubility) (2-Propanol/Water 50:50 (weight:weight)) | CD Free Base Conc. (saturation solubility) (2-Propanol/Water 90:10 (weight:weight)) | Solubility in 2-propanol (in words) (2-propanol) | CD Free Base Conc. (saturation solubility) (Ethanol/Water 10:90 (weight:weight)) | CD Free Base Conc. (saturation solubility) (Ethanol/Water 50:50 (weight:weight)) | CD Free Base Conc. (saturation solubility) (Ethanol/Water 90:10 (weight:weight)) | CD Free Base Conc. (saturation solubility) (Methanol/Water 10:90 (weight:weight)) | CD Free Base Conc. (saturation solubility) (Methanol/Water 50:50 (weight:weight)) | CD Free Base Conc. (saturation solubility) (Methanol/Water 90:10 (weight:weight)) | CD Free Base Conc. (saturation solubility) (solvent 2-Isopropoxyethanol) | CD Free Base Conc. (saturation solubility) (solvent 2-Methyl-1,3-Propanediol) | CD Free Base Conc. (saturation solubility) (solvent 2-Propanol) | CD Free Base Conc. (saturation solubility) (solvent 3-Methoxy-1-Butanol) | CD Free Base Conc. (saturation solubility) (solvent Diethylene Glycol) | CD Free Base Conc. (saturation solubility) (solvent Ethanol) | CD Free Base Conc. (saturation solubility) (solvent Methanol) | CD Free Base Conc. (saturation solubility) (solvent PEG-200) | CD Free Base Conc. (saturation solubility) (solvent PEG-300)
CCN(CC)c1ccc(N)c(C)c1 [CD-2 free base, 4-amino-3-methyl-N,N-diethylaniline] | fully miscible |  |  |  |  |  |  |  |  |  |  |  |  |  |  |  |  |  |  | 
CCN(CCNS(C)(=O)=O)c1ccc(N)c(C)c1 [CD-3 free base, 4-amino-3-methyl-N-ethyl-N-(2-methanesulfonamidoethyl)aniline] | lesser solubility | 0.8 weight percent | 9.2 weight percent | 7.8 weight percent | low solubility | 0.6 weight percent | 9.0 weight percent | 9.7 weight percent | 0.7 weight percent | 6.8 weight percent | 18.9 weight percent | 8.6 weight percent | 3.3 weight percent | 1.8 weight percent | 9.3 weight percent | 15.2 weight percent | 5.4 weight percent | 23.6 weight percent | 16.9 weight percent | 16.7 weight percent
